Assay: excess molar enthalpy (molar enthalpy of mixing); xn = mol fraction of the nth substance listed
Conditions: 101 kPa, Liquid, Calvet calorimetry

[Bi] [bismuth] + [Cu]
Conditions	excess molar enthalpy [kcal/mol]
1073.2 K, x2 = 0.0427	0.194
1073.2 K, x2 = 0.0749	0.337
1073.2 K, x2 = 0.0819	0.358
1073.2 K, x2 = 0.1184	0.493
1073.2 K, x2 = 0.1417	0.584
1073.2 K, x2 = 0.1524	0.603
1073.2 K, x2 = 0.1852	0.697
1073.2 K, x2 = 0.2051	0.763
1073.2 K, x2 = 0.216	0.771
1073.2 K, x2 = 0.2446	0.834
1073.2 K, x2 = 0.2648	0.887
1073.2 K, x2 = 0.2722	0.891
1073.2 K, x2 = 0.2982	0.937
1073.2 K, x2 = 0.3165	0.973
1073.2 K, x2 = 0.3228	0.974
1073.2 K, x2 = 0.3461	1
1073.2 K, x2 = 0.3622	1.02
1073.2 K, x2 = 0.3683	1.02
1073.2 K, x2 = 0.3893	1.04
1073.2 K, x2 = 0.4032	1.04
1273.2 K, x2 = 0.1194	0.496
1273.2 K, x2 = 0.2184	0.84
1273.2 K, x2 = 0.2984	1.04
1273.2 K, x2 = 0.3648	1.15
1273.2 K, x2 = 0.4198	1.21
1273.2 K, x2 = 0.47	1.23
1273.2 K, x2 = 0.5122	1.24
1273.2 K, x2 = 0.5486	1.22
1273.2 K, x2 = 0.5801	1.2
1273.2 K, x2 = 0.6078	1.18
1273.2 K, x2 = 0.632	1.16
1273.2 K, x2 = 0.6535	1.13
1273.2 K, x2 = 0.673	1.1
1273.2 K, x2 = 0.6904	1.07
1273.2 K, x2 = 0.7077	1.04
1273.2 K, x2 = 0.724	1.01
1273.2 K, x2 = 0.7393	0.985
1273.2 K, x2 = 0.7532	0.956
1273.2 K, x2 = 0.7659	0.924
1273.2 K, x2 = 0.7773	0.897
1273.2 K, x2 = 0.7884	0.874
1273.2 K, x2 = 0.7985	0.859
1273.2 K, x2 = 0.8078	0.828
1273.2 K, x2 = 0.8164	0.802
1273.2 K, x2 = 0.8244	0.777

Reference: the NIST ThermoML archive (doi:10.1016/j.tca.2008.02.023)
